US6017877A, “Method and composition for treating thrombosis” (priority 1994, dated 2000)
Where “and” joins values, the source holds several entries; their conditions need not be identical. Equal entries are not always repeated. Where two headings read alike, the source gives them in different places.

Key:
platelets [1] = test: Platelet aggregation assay of Example XI; type: cell-based; details: for reactivity relative to 8X in platelet aggregation: fold more reactive than 8X
Description: (§1) Platelet aggregation was assessed using the method of Born, Nature 194:927-929 (1962), incorporated herein by reference. Briefly, the change in light transmission was measured through a stirred suspension of platelets in an aggregometer (Model 400 VS, Chrono-Log, Havertown, Pa., USA). […] In studies using thrombin, the PRP was gel-filtered on Sepharose 2B in divalent ion-free Tyrode's solution containing 2% BSA. For all studies, the reference standard was platelet-poor plasma, which was obtained by centrifuging PRP at 1000× g for 5 min.
(§2) (Platelet count was determined with the aid of a hemacytometer.) Peptides and stimulants were added to these suspensions in 1% dilutions. The PRP and gel-filtered platelets were used within three hours from the time of blood collection.

GP IIb/IIIa = GP IIb/IIIa (Homo sapiens, UniProt P05106+P08514); test: Inhibition of binding of various ligands to GP IIb/IIIa; details: fibrinogen vs fibronectin and vitronectin
[2] = molecular target: T1, vitronectin receptor (Vn-R) (Homo sapiens, UniProt P05106+P06756); test: VnR binding, ELISA or liposome attachment assay (Table I)
T1 construct: from tissue; host or cells: human placenta
Description: Except where stated, all procedures were carried out at 4° C. The peptide column was washed with three volumes of Tris-buffered saline (TBS) containing 1 mM Ca^2+ and Ca^2+ and 25 mM OG and then with TBS containing 1 mM 25 mM octyl thioglucoside (OTG) at room temperature. […] Finally, Ca^2+ and Mg^+2 were added to eluted fractions to achieve final concentrations of 1 mM for both ions.
Maxisorp microtiter plates were coated with 2 μg/ml human vitronectin dissolved in PBS (50 ml/well) and stored overnight at 4° C. The plates were washed two times with PBS-0.05% Tween-20 (wash buffer) and blocked by incubating with about 150 μl/well of assay buffer (1%, BSA (RIA grade or better) in 50 mM Tris-HCl, 100 mM NaCl, 1 mM MgCl2, CaCl2, MnCl2 pH 7.4) for 60 minutes. Dilutions of standards were prepared and putative inhibitors (Table 2) were dissolved in assay buffer. The blocked plates were emptied and 20 μl/well of inhibitor or standard solution was added to each well. Twenty-five μl of a 30 μg/ml solution of purified αV β3 in assay buffer was pipetted into the coated plate. The final concentration of receptor in the assay well was about 15 μg/ml. The plate was incubated on a shaker for 60 minutes. Meanwhile, for each microtite plate, 6 ml buffer solution containing 1.5 μg/ml of mouse monoclonal antibody specific for β3 is prepared. To this solution was added the secondary antibody which is anti-mouse-Fc-HRP antibody conjugate. For example, for one plate, 6 ml of a 1.5 μg/ml mouse Mab solution was prepared to which was added 1 μl of anti-mouse-Fc-HRP antibody stock, (this represents a 1:6000 dilution of the antibody--HRP conjugate). This mixture was allowed to incubate during the receptor-inhibitor incubation. The assay plates were washed 4 times with PBS-Tween and 50 μl/well of the antibody mixture was then pipetted into the plate for a 60 minute incubation. The plate was washed 4 times and the color reaction was developed with 50 μl/well of 0.67 mg/ml o-phenyldiamine in PBS containing 0.012% H2 O2. Alternatively, 16 mM citric acid, 50 mM Na2 PO4 at pH 5.0 can be used as a substrate buffer. The reaction is stopped with 50 μl/well 1 M H2 SO4. The plates were read at 492-405 nm and the data analyzed by four-parameters fit.
Briefly, 1:4 mixture of labelled and unlabelled phosphatidylcholine (PC) liposomes was dissolved under nitrogen and diluted with an equal volume of purified receptor (purified as described in Example II) to achieve a fixed predetermined receptor-liposome concentration ratio. This mixture was then dialyzed overnight at 4° C. in phosphate buffered saline (PBS) containing 1 mM Ca^2+. An aliquot of the dialyzed sample was counted to assess radioactive content; the receptor-liposome mixture was then diluted to obtain a set radioactivity per unit volume. […]

platelets [3] = test: Ex vivo platelet aggregation in canine coronary thrombosis model; details: dog; for reduction of ex vivo aggregation relative to control levels: 3 mg/kg; for ex vivo platelet aggregation by all three stimuli: 10 mg/kg
Description: For all ex vivo studies (see FIG. 3), control aggregation values were standardized to the percentages of light transmission observed in PRP and PPP samples (0% and 100%, respectively).
Animals were randomly assigned to two treatment groups: vehicle control (i.e., normal saline) or RGD peptides at various concentrations. Peptides were administered intra-atrially in both bolus and continuous injections. Each bolus injection consisted of 0.5 to 10 mg/kg and was administered 15 minutes before application of the current. A continuous infusion of the same peptide was then started immediately after completion of this initial injection. Animals received a 25 μg/kg/min to 200 μg/kg/min infusion. The anti-thrombotic effects of the peptides were monitored until 30 minutes after the occurrence of a persistent, occlusive thrombus or five hours after the initiation of electrical stimulation (whichever resulted first). If an occlusive thrombus had not developed within four hours after the initiation of current, the peptide infusion was stopped.
Platelet counts and ex vivo aggregation studies were performed one hour before and 1, 3, and 5 hours after application of anodal direct current.
Platelet aggregation was also determined ex vivo at one, three, and five hours after current application. For these studies, arachidonic acid, or collagen was again used to stimulate the platelets.

coronary thrombosis = test: Electrically induced canine coronary thrombosis, time to full occlusion; type: in vivo; details: dog
Description: Male mongrel dogs weighing 14 to 20 kg were selected based on proper aggregation of their platelets in response to arachidonic acid, collagen, and adenosine disphosphate (ADP) and based on similar weights and hemodynamic properties.
Before surgery, the animals were anesthetized with sodium pentobarbital (30 mg/kg, i.v.) and then intubated and ventilated on room air with positive pressure using a respirator (Harvard Apparatus, S. Natick, Mass.) at a volume of 30 ml/kg and a frequency of 12 breaths/min. Surgery, performed under aseptic conditions, was begun with the placement of cannulae into the left carotid artery and jugular vein for monitoring arterial blood pressure (Statham P23 pressure transducer, Gould, Inc., Cardiovascular Products, Oxnard, Calif.) and administering intravenous fluids.
The heart was exposed via a left thoracotomy through the 5th intercostal space. […]
Animals were randomly assigned to two treatment groups: vehicle control (i.e., normal saline) or RGD peptides at various concentrations. […] The anti-thrombotic effects of the peptides were monitored until 30 minutes after the occurrence of a persistent, occlusive thrombus or five hours after the initiation of electrical stimulation (whichever resulted first). […]
Coronary thrombosis was quantified as the time to full occlusion. […]

[4] = system: Gore-tex vascular graft thrombosis; test: Platelet and fibrinogen uptake by Gore-Tex grafts in baboon ex vivo shunt; details: baboon animal 2, 10 mg/kg bolus IV + 10 mg/kg/hr infusion for two hours
Description: Adult male baboons (weighing 16 to 25 kg) were used in these studies. These were sedated with ketamine hydrochloride (200 to 250 mg intramuscular injection) and maintained under anesthesia with sodium pentobarbital (50 to 75 mg administered intravenously as necessary).
Twenty-four hours before the ex vivo shunt was established, platelets were isolated from 500 ml of blood from the test animal and labelled with ca. 500 microcuries of indium-111 oxine (Medi+Physics, Emeryville, Calif.), which irreversibly and specifically binds to platelets with an efficiency of 50%. Immediately after labelling, these platelets were then injected back into the animal and allowed to circulate for 24 hours. Immediately before the start of the study, fibrinogen that had been isolated from the animal and labelled with iodine-131 (DuPont Nuclear, Boston, Mass.) was also injected back into the animal. Also at this time, baseline determinations of the clotting and template bleeding times were made, and blood samples were drawn for hematology studies.
To establish the ex vivo shunt, the femoral artery and vein were percutaneously cannulated with introducer catheters (KMA Inc., Mansfield, Mass.). […]
Platelet deposition onto the grafts was monitored by dynamic scanning with a gamma camera (Sigma 400, Ohio Nuclear, Inc., Sohon, Ohio), which detects the gamma radiation emitted by the ^111 indium-labelled platelets. […]

platelets [5] = test: Baboon ex vivo platelet aggregation (ADP); type: in vivo; details: baboon animal 2, PRP, ADP 10 μm
Description: At one- and two-hour time points, template bleeding times were measured, and blood samples were drawn to assess the hematology aggregation studies. Platelet aggregation studies were performed as described in Example V using ADP as the stimulus.
In addition, platelet aggregation studies were conducted on PRP derived from the second animal. Whole blood was drawn at three time points (0, 1 and 2 hours) of both control and experimental shunts.

platelets [6] = test: Thrombin-stimulated platelet aggregation (Table I); type: cell-based, human; details: thrombin 2 U/ml, gel-filtered platelets
Description: as §1, with “Platelet aggregation assays were performed following the methods of this Example or those of Example IX.G. Platelet” for “Platelet”
as §2, with “All aggregation studies were performed at 37° C. with a constantly stirred suspension of 3×10^8 platelets/ml. (Platelet” for “(Platelet”
Peptide anti-aggregation potencies were determined from dose-responsive curves for the inhibition of the maximum aggregation responses stimulated by physiologic doses of ADP (10 μm) and thrombin (2 U/ml).

platelets [7] = type: cell-based, human; details: ADP 10 μm, platelet-rich plasma; read-out: ADP-Stimulated Aggregation (IC50)
Description: All aggregation studies were performed at 37° C. with a constantly stirred suspension of 3×10^8 platelets/ml. (Platelet count was determined with the aid of a hemacytometer.) Peptides and stimulants were added to these suspensions in 1% dilutions. The PRP and gel-filtered platelets were used within three hours from the time of blood collection.

[8] = Rabbit peripheral blood flow (PBF), laser dopler flow probe; type: in vivo; details: time 10 min, bolus dose printed with drug
Description: In an alternative series of experiments, (Table 2) PBF was measured quantitatively with a laser dopler flow probe (Perimed). The probe was positioned securely over the vascular bed of one ear and flow monitored continuously. Each inhibitor was infused and CBT measured in the opposing ear. No arterial catheter was placed for blood sampling, consequently XPA was measured in these animals.

T1 sequence (P06756 31-889 limits assumed): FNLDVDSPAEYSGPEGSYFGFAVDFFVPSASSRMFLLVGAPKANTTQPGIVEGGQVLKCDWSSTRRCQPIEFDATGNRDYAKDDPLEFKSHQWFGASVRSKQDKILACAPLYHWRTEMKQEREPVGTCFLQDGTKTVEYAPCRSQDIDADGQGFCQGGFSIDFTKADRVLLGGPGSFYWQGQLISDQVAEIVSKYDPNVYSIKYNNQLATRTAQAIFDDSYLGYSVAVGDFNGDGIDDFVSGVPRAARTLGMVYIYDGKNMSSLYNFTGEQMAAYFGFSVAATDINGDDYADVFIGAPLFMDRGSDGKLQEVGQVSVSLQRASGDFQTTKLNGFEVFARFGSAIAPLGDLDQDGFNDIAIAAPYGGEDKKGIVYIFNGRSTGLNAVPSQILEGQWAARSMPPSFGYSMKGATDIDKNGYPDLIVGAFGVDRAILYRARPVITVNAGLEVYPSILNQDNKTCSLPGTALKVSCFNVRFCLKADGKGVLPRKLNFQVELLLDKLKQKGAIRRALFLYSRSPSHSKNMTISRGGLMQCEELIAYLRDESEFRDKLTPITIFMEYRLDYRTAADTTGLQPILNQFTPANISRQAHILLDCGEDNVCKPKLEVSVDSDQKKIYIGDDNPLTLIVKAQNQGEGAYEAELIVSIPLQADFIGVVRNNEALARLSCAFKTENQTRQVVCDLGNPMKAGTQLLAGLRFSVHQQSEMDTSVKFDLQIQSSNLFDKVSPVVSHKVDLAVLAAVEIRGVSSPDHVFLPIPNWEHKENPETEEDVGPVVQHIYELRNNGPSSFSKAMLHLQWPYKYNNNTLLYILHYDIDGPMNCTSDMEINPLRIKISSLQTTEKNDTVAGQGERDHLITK
T1 sequence (P06756 891-1048 partner limits assumed): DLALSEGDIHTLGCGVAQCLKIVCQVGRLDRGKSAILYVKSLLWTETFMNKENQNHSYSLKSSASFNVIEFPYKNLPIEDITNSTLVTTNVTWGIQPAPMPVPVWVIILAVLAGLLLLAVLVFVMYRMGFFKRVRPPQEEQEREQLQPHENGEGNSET
T1 sequence (P05106 27-788): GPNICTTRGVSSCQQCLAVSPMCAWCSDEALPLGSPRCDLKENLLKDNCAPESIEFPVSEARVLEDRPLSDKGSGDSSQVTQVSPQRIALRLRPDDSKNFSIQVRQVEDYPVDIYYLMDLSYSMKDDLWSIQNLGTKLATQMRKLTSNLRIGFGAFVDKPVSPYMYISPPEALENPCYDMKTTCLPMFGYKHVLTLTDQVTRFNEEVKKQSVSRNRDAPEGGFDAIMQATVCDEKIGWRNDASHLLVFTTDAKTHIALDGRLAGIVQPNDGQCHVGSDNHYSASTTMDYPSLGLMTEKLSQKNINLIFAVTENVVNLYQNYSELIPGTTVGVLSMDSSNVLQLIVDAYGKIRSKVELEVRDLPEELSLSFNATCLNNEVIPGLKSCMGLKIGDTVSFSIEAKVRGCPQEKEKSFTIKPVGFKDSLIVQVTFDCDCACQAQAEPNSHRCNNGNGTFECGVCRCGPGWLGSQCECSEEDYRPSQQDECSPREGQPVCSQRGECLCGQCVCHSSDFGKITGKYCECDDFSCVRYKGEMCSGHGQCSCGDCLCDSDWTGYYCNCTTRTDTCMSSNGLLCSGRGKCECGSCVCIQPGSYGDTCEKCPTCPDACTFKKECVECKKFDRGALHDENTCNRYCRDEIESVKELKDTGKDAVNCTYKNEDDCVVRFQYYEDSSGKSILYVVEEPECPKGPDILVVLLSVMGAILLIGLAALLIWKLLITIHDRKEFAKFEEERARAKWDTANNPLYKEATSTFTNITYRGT
GP IIb/IIIa, sequence (P08514 32-887 limits assumed): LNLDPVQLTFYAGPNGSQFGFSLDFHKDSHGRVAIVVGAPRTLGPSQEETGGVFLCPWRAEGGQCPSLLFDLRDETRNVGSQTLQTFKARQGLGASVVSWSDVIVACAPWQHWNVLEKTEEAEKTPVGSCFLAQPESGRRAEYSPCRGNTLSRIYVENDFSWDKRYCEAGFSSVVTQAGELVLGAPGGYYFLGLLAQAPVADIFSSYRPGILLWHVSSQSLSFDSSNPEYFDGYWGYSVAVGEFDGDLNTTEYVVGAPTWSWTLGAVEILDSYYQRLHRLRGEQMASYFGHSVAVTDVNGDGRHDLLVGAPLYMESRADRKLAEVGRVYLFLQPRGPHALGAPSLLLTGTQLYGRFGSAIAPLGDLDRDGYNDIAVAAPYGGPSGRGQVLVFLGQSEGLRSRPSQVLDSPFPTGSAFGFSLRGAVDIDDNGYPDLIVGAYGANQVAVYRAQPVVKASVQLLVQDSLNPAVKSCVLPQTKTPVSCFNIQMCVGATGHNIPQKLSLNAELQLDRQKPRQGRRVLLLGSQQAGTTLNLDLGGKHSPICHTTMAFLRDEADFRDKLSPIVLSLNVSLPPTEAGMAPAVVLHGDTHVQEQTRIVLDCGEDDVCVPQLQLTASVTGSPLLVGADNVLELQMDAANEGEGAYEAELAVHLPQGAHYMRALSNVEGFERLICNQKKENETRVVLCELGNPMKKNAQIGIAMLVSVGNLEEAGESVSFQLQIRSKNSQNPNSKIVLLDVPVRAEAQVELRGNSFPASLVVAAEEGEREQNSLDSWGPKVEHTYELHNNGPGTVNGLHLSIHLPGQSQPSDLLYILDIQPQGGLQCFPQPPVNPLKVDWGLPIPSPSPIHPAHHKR
GP IIb/IIIa, sequence (P08514 891-1039 partner limits assumed): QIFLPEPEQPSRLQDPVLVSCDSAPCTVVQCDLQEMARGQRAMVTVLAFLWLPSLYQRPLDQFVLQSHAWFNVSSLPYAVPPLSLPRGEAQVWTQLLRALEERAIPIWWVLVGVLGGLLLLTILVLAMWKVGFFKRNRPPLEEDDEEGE
GP IIb/IIIa, sequence (P05106 27-788): as the sequence (P05106 27-788) above

Substance: (Mpr)RGD(O-Me-Y)RC-NH2 [16A]
- reactivity relative to 8X in platelet aggregation (platelets [1]): about two-fold

Substance: Ac--CNPRGD(Y--OMe)RCNH2 [8X]
- differential inhibition of ligand binding to GP IIb/IIIa (GP IIb/IIIa): inhibits the binding of fibrinogen to GP IIb/IIIa more than it inhibits the binding of fibronectin and vitronectin to the same integrin

Substance: FRGDSPDG
- IC50 [2]: 40 nM

Substance: G(Pen)GHRGDLRCA [2G]
- ex vivo ADP-stimulated aggregation (platelets [3]; 10 mg/kg, 1, 3 and 5 h): substantially inhibited
- coronary thrombosis, time to full occlusion (coronary thrombosis; 10 mg/kg): did not significantly influence
- reduction in labelled fibrinogen uptake by graft [4]: 78%
- reduction in labelled platelet uptake by graft [4]: 84%
- ex vivo platelet aggregation response (platelets [5]): completely unresponsive

Substance: GNPRGD(O-Me-Y)RD-NH2 [20Q]
- potency relative to 17J (platelets [1]; times more potent than 17J): about three
- potency relative to 18J (platelets [1]; times more potent than 18J): about 20

Substance: LRGDSPDG
- IC50 [2]: 200 nM

Substance: R2 (Pen)GRGDTPCA
- IC50 (platelets [6]): 2700 nM
- IC50 (platelets [7]): 8200 nM

Substance: R(Pen GRGDWPCR [4R]
- IC50 (platelets [6]): 530 nM
- reduction of ex vivo aggregation relative to control levels (platelets [3]; one hour): 20-58%
- reduction of ex vivo aggregation relative to control levels (platelets [3]; three and five hours): 75-100% and 72-100%
- ex vivo platelet aggregation by all three stimuli (platelets [3]): unresponsive to all modes of stimulation at all time points
- coronary thrombosis, time to full occlusion (coronary thrombosis; 3 mg/kg): ineffective

Substance: R(Pen)GHRGDWRCR [4Q]
- ex vivo platelet activation by collagen (platelets [3]; 5 mg/kg): near-maximal inhibition
- ex vivo platelet response to ADP and AA (platelets [3]; 5 mg/kg, all three time points): completely unresponsive
- ex vivo platelet aggregation by all three stimuli (platelets [3]): prevented platelet aggregation by all three stimuli
- PBF [8]: 9 units

Substance: RGD(O-Me-Y)RE-NH2 [21I]
- reactivity relative to 8X in platelet aggregation (platelets [1]): about three-fold

Substance: VRGDSPDG
- IC50 [2]: 240 nM

Substance: YRGDSPDG
- IC50 [2]: 80 nM
